Where “and” joins values, the source holds several entries; their conditions need not be identical. Identical values can stand only once.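 Five compound concentrations were applied to cells in 96-well plates for 48 hours; endpoints were derived by simple linear interpolation of the resulting dose-response curve. GI50: concentration for 50% inhibition of growth. TGI: total growth inhibition.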
Legend:
Test in all cases: DTP human tumour cell line panel, 48 h
[1] = tested on: SF-295 CNS
[2] = tested on: NCI-H23 lung
[3] = tested on: SK-OV-3 ovarian
[4] = tested on: SNB-19 CNS
[5] = tested on: UACC-257 melanoma
[6] = tested on: MDA-MB-435
[7] = tested on: HL-60(TB) leukemia
[8] = tested on: SK-MEL-2 melanoma
[9] = tested on: UACC-62 melanoma
[10] = tested on: LOX IMVI melanoma

Row | SMILES | GI50 [1] | TGI [1] | GI50 [2] [µM] | TGI [2] [µM] | GI50 [3] [µM] | TGI [3] [µM] | GI50 [4] | TGI [4] | GI50 [5] | TGI [5] | GI50 [6] [µM] | TGI [6] [µM] | GI50 [7] | TGI [7] | GI50 [8] | TGI [8] | GI50 [9] | TGI [9] | TGI [10] | GI50 [10]
1 | COc1ccc2nc3cc(Cl)ccc3c(N3CCN(c4ccnc(N5CCOCC5)n4)CC3)c2c1 | > 100 µM | > 100 µM | 8.61 | > 100 | > 100 | > 100 | > 100 µM | > 100 µM | > 100 µM | > 100 µM | 7.15 | > 100 | 8.12 µM | > 100 µM | 53.3 µM | > 100 µM | > 100 µM | > 100 µM |  | 
2 | OCC1OC(OCC(O)C(O)C(O)C(/C=N/Nc2ccccc2)=N/Nc2ccccc2)C(O)C(O)C1O (configuration not stated) |  | > 100 µM |  | > 100 |  | > 100 |  | > 100 µM |  | > 100 µM |  | > 100 |  | > 100 µM |  |  |  |  | > 100 µM | 
3 | CC(=O)O[C@]1(C)OC(=O)[C@@H](C)N1[N+](=O)[O-] |  | > 100 µM |  | > 100 |  | > 100 |  | > 100 µM |  | > 100 µM |  |  |  | > 100 µM |  | > 100 µM |  | > 100 µM | > 100 µM | 
4 | CC/C(=C(/CC)c1ccc([O-])cc1)c1ccc([O-])cc1.CC/C(=C(\CC)c1ccc([O-])cc1)c1ccc([O-])cc1.O=C([CH-]C(=O)c1ccccc1)c1ccccc1.O=C([CH-]C(=O)c1ccccc1)c1ccccc1.O=C([CH-]C(=O)c1ccccc1)c1ccccc1.O=C([CH-]C(=O)c1ccccc1)c1ccccc1.[Ti+4].[Ti+4] | 19.9 µM | 42.6 µM | 25.9 | 97.3 | 30.8 | 74.4 | 22.6 µM | 56.2 µM | 28 µM | > 100 µM |  |  | > 100 µM | > 100 µM | 25.8 µM | 73.5 µM | 18.9 µM | 52.4 µM | > 100 µM | 43 µM
5 | COC(=O)c1ccc(NC(=O)Nc2ccc3oc(=O)c4ccccc4c3c2)cc1 | 55.9 µM | > 100 µM | 71.4 | > 100 | 40.3 | > 100 | 33 µM | 89.8 µM | 60.7 µM | > 100 µM | 27.9 | 89.3 | 0.714 µM | 14 µM |  |  | 82.2 µM | > 100 µM | > 100 µM | 39.2 µM
6 | O=C1OCCC1C(O)C1c2ccccc2-c2ccccc21 (configuration not stated) |  | > 100 µM |  | > 100 |  | > 100 |  | > 100 µM |  | > 100 µM |  |  |  | > 100 µM |  | > 100 µM |  | > 100 µM |  | 
7 | C[C@]12CCc3nonc3C1CC[C@@H]1C2CC[C@]2(C)NC(=O)CCC12 (some centres not stated) |  | > 100 µM |  | > 100 |  | > 100 |  | > 100 µM |  | > 100 µM |  |  |  | > 100 µM |  | > 100 µM |  | > 100 µM | > 100 µM | 
8 | C1C[S][Ge]2([S]CCO1)[S]CCOCC[S]2 |  |  | > 100 | > 100 | > 100 | > 100 |  |  |  |  |  |  | > 100 µM | > 100 µM | > 100 µM | > 100 µM | > 100 µM | > 100 µM |  | 
9 | Cc1cc(=O)[nH]o1 |  | > 100 µM |  | > 100 |  | > 100 |  | > 100 µM |  | > 100 µM |  | > 100 |  |  |  | > 100 µM |  | > 100 µM | > 100 µM | 
10 | O=C([O][Hg][CH2]C1COC([CH2][Hg][O]C(=O)c2ccccc2)CO1)c1ccccc1 (configuration not stated) | 19.2 µM and 17.8 µM | 41.7 µM and 31.6 µM | 9.82 | 23.3 | 17.6 | 31.4 | 19.6 µM and 6.18 µM | 43.2 µM and 21.9 µM | 14.8 µM and 1.98 µM | 28.1 µM and 3.98 µM |  |  | 1.68 µM and 1.82 µM | 4.54 µM and 21.6 µM | 12.8 µM and 1.84 µM | 25.7 µM and 3.75 µM | 16.7 µM and 2.26 µM | 30.4 µM and 5.09 µM | 4.85 µM and 3.11 µM | 1.89 µM and 1.66 µM
11 | COc1ccc(C(=O)C(C(=O)C(=O)Nc2ccc(Cl)c(Cl)c2)c2ccc(OC)cc2)cc1 (configuration not stated) |  | > 100 µM |  | > 100 |  |  |  | > 100 µM |  | > 100 µM |  |  |  | > 100 µM |  | > 100 µM |  | > 100 µM | > 100 µM | 
12 | COc1c(NC(C)=O)cc(C)cc1NC(C)=O |  | > 100 µM |  |  |  | > 100 |  |  |  | > 100 µM |  |  |  | > 100 µM |  | > 100 µM |  | > 100 µM | > 100 µM | 
13 | Cc1c(C(=O)C/C(=N/NC(=O)C[n+]2ccccc2)C(=O)Nc2ccccc2)[n+](=O)c2ccccc2n1O |  | > 100 µM |  | > 100 |  | > 100 |  | > 100 µM |  | > 100 µM |  |  |  | > 100 µM |  | > 100 µM |  | > 100 µM | > 100 µM | 
14 | CCOc1cc2c(cc1O)/C(=N\O)C[C@@H]1[C@@H]2CC[C@]2(C)[C@@H](O)CC[C@@H]12 | 0.00322 µM and 0.0266 µM | 0.081 µM and 0.0784 µM | 0.004 |  |  |  | 0.00629 µM |  |  |  |  |  |  | < 0.0258 µM |  | 55.6 µM | 0.00607 µM | 28.8 µM | > 63.8 µM | 0.00721 µM
15 | CC(C)(C)CC(C)(C)c1cc2c(O)c(c1)Cc1cc(C(C)(C)CC(C)(C)C)cc(c1O)Cc1cc(C(C)(C)CC(C)(C)C)cc(c1O)Cc1cc(C(C)(C)CC(C)(C)C)cc(c1O)Cc1cc(C(C)(C)CC(C)(C)C)cc(c1O)Cc1cc(C(C)(C)CC(C)(C)C)cc(c1O)C2 |  | > 100 µM |  | > 100 |  |  |  | > 100 µM |  | > 100 µM |  |  |  | > 100 µM |  | > 100 µM |  | > 100 µM |  | 
16 | CC(C)(C)c1[nH]cnc1/C=c1\[nH]c(=O)/c(=C/c2ccccc2)[nH]c1=O | < 0.01 µM | 20.5 µM | 0.03 | 35.2 | < 0.01 | 60.9 | < 0.01 µM | > 100 µM | 6.32 µM | 22.6 µM |  |  | < 0.01 µM | 11.1 µM | < 0.0108 µM | 30.7 µM | < 0.01 µM | 21.2 µM | 17.7 µM | < 0.0121 µM
17 | CC(=O)O[C@H](C[C@H](C(C)C)N(C)C(=O)[C@@H](NC(=O)[C@H]1CCCCN1C)C(C)C)c1nc(C(=O)N[C@@H](Cc2ccccc2)C[C@H](C)C(=O)O)c(C(C)C)s1 | < 0.00333 µM | 0.297 µM | < 0.00333 | > 33.3 | < 0.00333 | > 33.3 | < 0.00333 µM | > 33.3 µM | > 33.3 µM | > 33.3 µM |  |  | < 0.00333 µM | < 0.00333 µM | < 0.00333 µM | 19.2 µM | < 0.00333 µM | > 33.3 µM | 10.5 µM | < 0.00333 µM
